Measurements reported in US20260053931A1, “MDM2 TARGETING PROTACS” (THE WISTAR INSTITUTE OF ANATOMY AND BIOLOGY, priority 2023, published 2026).

Columns and labels:
Mdm2-VHL = Mdm2-VHL (Homo sapiens, UniProt P40337+Q00987); assay: AlphaScreen ternary complex formation; format: binding; details: GST-MDM2 and HIS-VHL
Source text: A. Chemical structure of MDM2-PROTAC. B-C. MDM2:p53 and MDM2:VHL-HIF1α peptide binding inhibition determined by homogeneous time-resolved fluorescence (HTRF, triplicate, mean±SEM, B) and surface plasmon resonance (SPR, triplicate, mean±SD, C. Binding assays by the indicated compounds. Graphical data is representative of 3 separate experiments. D. AlphaScreen of ternary complex using GST-MDM2 and HIS-VHL; mean±SD. E-F. Western blot analysis for the proteins indicated following a dose-titration (E, 16 hr) and time course (F, 6 μM) with the PROTAC or vehicle control (DMSO, −) in MDA-MB-231 (p53-mutant) and MDA-MB-436 (p53-delete) cells. G-K. Western blot analysis for the proteins indicated following treatment with the MDM2-PROTAC and/or the neddylation activating enzyme inhibitor MLN4924 G.

[1] = tested on: Mdm2-/-p53-/- sarcoma cells; assay: Murine Mdm2-/-p53-/- sarcoma cells, MTT; format: cell-based, mouse; details: MTT assay, 48 hrs
Source text: A-B. Murine Mdm2+/+p53-null sarcoma cells treated with Mdm2 PROTAC (YX-02-030), control YX-02-023 (−), or vehicle (DMSO). A. Western blots after 24 hrs (cleaved caspase 3, CC3. Mdm2^−/−p53^−/− fibroblasts were a control for the Western blot). B. Dose response curve (MTT assay, 48 hrs). C. Dose response curves of murine Mdm2^−/−p53^−/− sarcoma cells treated with Mdm2 PROTAC (YX-02-030), negative controls (−), a Bcl2/Bclx/Bclw inhibitor (+), or vehicle control (MTT assay, quadruplicate, 48 hrs- MTT assay, B-C graphed relative to DMSO).

[2] = tested on: MDA-MB-231 and MDA-MB-436 cells; assay: Colony formation assay; format: cell-based, human; set-up: unit of the concentration uncertain; details: 12 days
Procedure: (§1) FIGS. 21A-21E show the apoptosis induction of p53-inactivated TNBC cells in 2D and 3D cultures by the MDM2-PROTAC YX-02-030. A-B. Colony formation assays (A. Triplicate, 12 days) and mammosphere formation (B. Triplicate 72 hrs) of MDA-MB-231 and MDA-MB-436 cells in the presence of the indicated compounds or DMSO control (−); representative pictures shown. C-E. Formed mammospheres of MDA-MB-231 and MDA-MB-436 cells were treated with the compounds indicated or DMSO control (−), and area (C. n=10 mammospheres, relative to pre-treatment area, 72 hr), real-time imaging (IncuCyte) and quantification of Caspase-3/7 activity (D. n=4-5 wells/compound), and survival/ATP assays (E. Quadruplicate, 72 hr) were performed; representative images shown; scale bar 300 m. Mean±SEM (A-C and E). For A, *P<0.0001 and **P<0.0001, comparing 1 M and 2 M PROTAC, respectively, to control compounds and DMSO vehicle control. For B, *P<0.0046, **P<0.0001, and ***P<0.0001, comparing 0.5 M, 1 M, and 2 M PROTAC, respectively, to control compounds and DMSO vehicle control. For C, *P<0.0001 and **P<0.0001, comparing 2 M and 4 M/6 M PROTAC, respectively, to control compounds and DMSO vehicle control. […]
The ability of the PROTAC-mediated degradation of MDM2 to alter the clonogenic potential of p53-inactivated TNBC cells was evaluated by performing colony formation assays with MDA-MB-231 and MDA-MB-436 cells. […]

MDA-MB-231 mammospheres = assay: Area of formed mammospheres, MDA-MB-231; format: cell-based, human; details: MDA-MB-231, 3-fold lower concentration than the MDM2 inhibitors, 72 hr
Procedure: as §1
(§2) These were then evaluated in 3D culture as to when the YX-02-030 was effective at preventing TNBC cell mammosphere formation and eliminating already formed mammospheres. […]

MDA-MB-436 mammospheres = assay: Area of formed mammospheres, MDA-MB-436; format: cell-based, human; details: MDA-MB-436, 3-fold lower concentration than the MDM2 inhibitors, 72 hr
Procedure: as §1, §2

MDA-MB-231 cells = assay: Proteomics analysis of degradation selectivity; format: cell-based, human; details: 5 μM, 8 hours
Procedure: A proteomics analysis was performed to assess the selectivity of degradation by YX-02-030. MDA-MB-231 cells were treated for 8 hours with 5 μM of YX-02-030 or DMSO in triplicate and processed to provide 25 μg of protein loaded on a 10% acrylamide gel. The entire protein-containing gel regions were excised, digested with trypsin and analyzed by liquid chromatography tandem mass spectrometry (LC-MS/MS) using a 240-min gradient as described (Chae et al., 2016). Peptide sequences were identified using MaxQuant 1.6.3.3 (Cox & Mann, 2008). MS/MS spectra were searched against a UniProt human protein database. […] Under these experimental conditions Mdm2 was not able to be detected either in the treated or untreated samples.

SCC-25 = assay: Cell death of other cancer cell lines: SCC-25; format: cell-based; details: Homo sapiens; SCC-25, Head & Neck
Procedure: (§3) The PROTACs prepared herein were tested for their use in other cancer cell lines to determine activity in multiple different types of cancer.

DE1069 = assay: Cell death of other cancer cell lines: DE1069; format: cell-based; details: DE1069, Sarcoma, Mouse
Procedure: as §3

[3] = tested on: MDA-MB-231 and MDA-MB-436 cells; assay: Mammosphere formation in 3D culture; format: cell-based, human; details: each concentration tested, 72 hrs, compared to MDM2 inhibitors and vehicle
Procedure: as §1, §2

Chain of Mdm2-VHL (Q00987 whole entry): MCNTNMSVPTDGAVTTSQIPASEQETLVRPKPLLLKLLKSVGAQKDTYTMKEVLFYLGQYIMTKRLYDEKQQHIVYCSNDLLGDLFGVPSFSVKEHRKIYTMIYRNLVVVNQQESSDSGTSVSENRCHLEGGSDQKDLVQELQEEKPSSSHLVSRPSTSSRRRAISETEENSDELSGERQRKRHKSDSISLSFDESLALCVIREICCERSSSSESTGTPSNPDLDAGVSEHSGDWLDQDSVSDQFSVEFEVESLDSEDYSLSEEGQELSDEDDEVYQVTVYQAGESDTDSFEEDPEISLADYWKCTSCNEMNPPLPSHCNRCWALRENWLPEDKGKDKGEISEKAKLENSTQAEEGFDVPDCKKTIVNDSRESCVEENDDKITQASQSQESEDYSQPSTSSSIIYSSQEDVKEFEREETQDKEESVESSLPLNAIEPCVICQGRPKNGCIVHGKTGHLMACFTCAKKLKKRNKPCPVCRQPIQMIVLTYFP
Chain of Mdm2-VHL (P40337 whole entry): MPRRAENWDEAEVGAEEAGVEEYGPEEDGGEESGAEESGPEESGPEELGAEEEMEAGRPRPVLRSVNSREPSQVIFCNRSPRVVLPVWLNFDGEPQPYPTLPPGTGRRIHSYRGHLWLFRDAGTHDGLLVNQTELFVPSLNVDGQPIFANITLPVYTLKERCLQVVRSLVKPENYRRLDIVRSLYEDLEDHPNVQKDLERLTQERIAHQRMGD
Chain of Mdm2-VHL (Q15370 whole entry partner): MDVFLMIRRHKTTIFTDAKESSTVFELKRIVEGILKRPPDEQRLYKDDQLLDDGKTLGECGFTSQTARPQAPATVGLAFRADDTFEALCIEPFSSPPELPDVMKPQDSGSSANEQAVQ
Chain of Mdm2-VHL (Q15369 whole entry partner): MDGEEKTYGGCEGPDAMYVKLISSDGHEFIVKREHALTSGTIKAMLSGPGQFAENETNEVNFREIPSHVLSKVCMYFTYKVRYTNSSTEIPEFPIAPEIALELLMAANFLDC

## CCOc1cc(C(C)(C)C)ccc1C1=N[C@](C)(c2ccc(Cl)cc2)[C@](C)(c2ccc(Cl)cc2)N1C(=O)N1CCN(CC(=O)NCCOCCOCCOCC(=O)N[C@H](C(=O)N2C[C@H](O)C[C@H]2C(=O)NCc2ccc(-c3scnc3C)cc2)C(C)(C)C)CC1 (racemic) [YX-02-030]
Mdm2-VHL
  ternary complex formation: efficiently form a ternary complex
[1]
  response of Mdm2-/-p53-/- sarcoma cells: not responsive
[2]; 1 (unit uncertain)
  colony numbers: significant reduction in colony numbers
[2]; 2 (unit uncertain)
  colonies formed: < 2 colonies
MDA-MB-231 mammospheres
  reduction of mammosphere area: 49.5%
MDA-MB-436 mammospheres
  reduction of mammosphere area: 43.8%
MDA-MB-231 cells
  observable proteins affected: < 10%
  proteins significantly changed out of 4237: 31 proteins
SCC-25
  IC50: 3.1 µM
DE1069
  IC50: 6.1 µM
[3]
  mammosphere formation: significantly fewer mammospheres formed
